# Data as given in US10842149B2, “Water conditioning adjuvant compositions and related methods for reducing herbicide volatility” (BOARD OF TRUSTEES OF MICHIGAN STATE UNIVERSITY, priority 2017, dated 2020).
# Read-outs that look alike come from different tables or passages of the source.
# Assays:
# [1] = approximate values given by way of illustration; cited from earlier work
# [2] = tested on: VELVETLEAF; assay: Effect of DTPA on glyphosate efficacy on velvetleaf (% control); format: in vivo; conditions: Table 3, combined experiments 1, 2 and 3, 10 gpa, 25 psi, glyphosate 0.25 lb a.e./A
# [3] = tested on: GIANT FOXTAIL; assay: Effect of DTPA, EDTA and other adjuvants on glyphosate efficacy on giant foxtail (% control); format: in vivo; conditions: combined experiments 1 and 2, 10 gpa, 25 psi
# [4] = pH of the treatment solutions (Table 3); format: physicochemical; conditions: pH of treatment solution, DTPA treatments adjusted with KOH (5N)
# [5] = tested on: TOMATO; conditions: for % INJURY 7 DAT: rated 7 DAT; for % INJURY 10 DAT: rated 10 DAT; for % INJURY 14 DAT: rated 14 DAT; for % INJURY 21 DAT: rated 21 DAT; for % INJURY 28 DAT: rated 28 DAT
# Source text: Reduction in herbicide volatility can be characterized using the procedure generally set forth in Penner U.S. Publication No. 2016/0255832, which includes a bioassay system for evaluating herbicide volatilization from plant substrates (e.g., using wheat and soybean plants or equivalent in a plant growth chamber with a selected adjuvant/herbicide composition including a volatile growth regulator herbicide and an aminopolycarboxylate salt). A wide range of soil, plant, environmental, and herbicide factors (e.g., vapor pressure and water solubility of herbicide, surface characteristics) can affect herbicide volatility from soils and plants. Comparison of the volatilization would be most readily visualized by appropriate bioassay systems. In the bioassay system, a herbicide composition including a volatile growth regulator herbicide (e.g., 2,4-D, dicamba, or otherwise) and optionally one or more adjuvants (e.g., including an aminopolycarboxylate salt or not) is applied foliarly to a target plant generally resistant to the herbicide (e.g., wheat plants, such as amber red wheat) or is applied to a target soil area without a target plant. Twenty minutes later, soybean plants (e.g., PIONEER 92M92 soybean plants) or other plants sensitive to the volatile growth regulator herbicide are placed in the middle of the sprayed target plants and/or soil.
# The following examples illustrate the disclosed compositions and methods, but are not intended to limit the scope of any claims thereto. […] In the examples of Tables 1-3, target weeds were initially treated with glyphosate and any additional adjuvants as indicated in the tables. […] In the examples of Table 4, target soil was initially treated with dicamba and any additional adjuvants as indicated in the table, and then tomato plants were inserted into a ring of the treated soil for 24 hours. After 24 hours of sitting in the treated soil (i.e., during which time any volatilized herbicide from the soil could contact the tomato plants), the tomato plants were removed from the treated soil and grown on a laboratory bench.
# [6] = Table 1, glyphosate 0.20 (Run 1) / 0.25 (Run 2) lb a.e./A, pH adjusted to 5.5 with KOH
# [7] = Table 1, glyphosate 0.20 / 0.25 lb a.e./A
# [8] = Table 2, glyphosate 0.275 (exp 1) / 0.20 (exp 2) lb a.e./A
# [9] = Table 2, glyphosate 0.275 / 0.20 lb a.e./A
# [10] = tomato in treated soil ring: duration, dicamba 0.50 lb a.e./A
# [11] = tomato inserted 1 DAT (in 1st DAT out 2nd DAT), 24 hours
# [12] = tomato inserted 2 DAT (in 2nd DAT out 3rd DAT), 24 hours
# [13] = tomato inserted 3 DAT (in 3rd DAT out 4th DAT), 24 hours
# [14] = tomato inserted 4 DAT (in 4th DAT out 5th DAT), 24 hours
# [15] = tomato inserted 7 DAT (in 7th DAT out 8th DAT), 24 hours
compound,measurement,setting,value
"CC(C)OC(=O)COc1ccc(Cl)cc1Cl [2,4-D isopropyl ester]",vapor pressure,[1],~1.9×10^1 Pa
"CCCCOCCOC(=O)COc1ccc(Cl)cc1Cl [2,4-D butoxyethyl ester]",vapor pressure,[1],~3.2×10^−4 Pa
"CNC.O=C(O)COc1ccc(Cl)cc1Cl [2,4-D dimethylamine salt]",vapor pressure,[1],~1.3×10^−5 Pa
"CCCCC(CC)COC(=O)COc1ccc(Cl)cc1Cl (centres unmarked) [2,4-D 2-ethylhexyl ester]",vapor pressure,[1],~4.8×10^−4 Pa
"O=C(O)CN(CCN(CC(=O)O)CC(=O)O)CCN(CC(=O)O)CC(=O)O [1.0% w/v DTPA, Diethylenetriaminepentaacetic acid]",% CONTROL 7 DAT,[2],0%
same,% CONTROL 10 DAT,[2],0%
same,% CONTROL 14 DAT,[2],5%
same,% CONTROL 21 DAT,[2],0%
same,% CONTROL 7 DAT,[3]; [6],1%
same,% CONTROL 10 DAT,[3]; [7],5%
same,% CONTROL 14 DAT,[3]; [7],6%
same,% CONTROL 21 DAT,[3]; [7],1%
same,% CONTROL 7 DAT,[3]; [8],0%
same,% CONTROL 10 DAT,[3]; [9],0%
same,% CONTROL 14 DAT,[3]; [9],0%
same,% CONTROL 21 DAT,[3]; [9],3%
"O=C(O)CN(CCN(CC(=O)O)CC(=O)O)CC(=O)O [2 0% w/v EDTA, Ethylenediaminetetraacetic acid]",% CONTROL 7 DAT,[3]; [8],0%
same,% CONTROL 10 DAT,[3]; [9],0%
same,% CONTROL 14 DAT,[3]; [9],0%
same,% CONTROL 21 DAT,[3]; [9],0%
"O=C(O)CN(CCN(CC(=O)O)CC(=O)O)CC(=O)O [1.0% w/v EDTA, Ethylenediaminetetraacetic acid]",% CONTROL 7 DAT,[3]; [8],0%
same,% CONTROL 10 DAT,[3]; [9],0%
same,% CONTROL 14 DAT,[3]; [9],0%
same,% CONTROL 21 DAT,[3]; [9],3%
"O=C(O)CNCP(=O)(O)O [GLYPHOSATE, N-(phosphonomethyl)glycine]",% CONTROL 7 DAT,[2],12%
same,% CONTROL 10 DAT,[2],12%
same,% CONTROL 14 DAT,[2],10%
same,% CONTROL 21 DAT,[2],6%
same,pH,[4],4.7
same,% CONTROL 7 DAT,[3]; [6],39%
same,% CONTROL 10 DAT,[3]; [7],37%
same,% CONTROL 14 DAT,[3]; [7],40%
same,% CONTROL 21 DAT,[3]; [7],34%
same,% CONTROL 7 DAT,[3]; [8],49%
same,% CONTROL 10 DAT,[3]; [9],48%
same,% CONTROL 14 DAT,[3]; [9],48%
same,% CONTROL 21 DAT,[3]; [9],45%
"COc1c(Cl)ccc(Cl)c1C(=O)O [DICAMBA DGA, 3,6-dichloro-2-methoxybenzoic acid]",% INJURY 7 DAT,"[5]; tomato in treated soil ring: duration, dicamba 0.50 lb a.e./A on bare field soil kept wet, 20 gpa, 25 psi",25%
same,% INJURY 10 DAT,[5]; [10],27%
same,% INJURY 14 DAT,[5]; [10],30%
same,% INJURY 21 DAT,[5]; [10],27%
same,% INJURY 28 DAT,[5]; [10],27%
same,% INJURY 7 DAT,"[5]; tomato inserted 1 DAT (in 1st DAT out 2nd DAT), 24 hours, dicamba 0.50 lb a.e./A",33%
same,% INJURY 10 DAT,[5]; [11],37%
same,% INJURY 14 DAT,[5]; [11],35%
same,% INJURY 21 DAT,[5]; [11],32%
same,% INJURY 28 DAT,[5]; [11],25%
same,% INJURY 7 DAT,[5]; [12],13%
same,% INJURY 10 DAT,[5]; [12],23%
same,% INJURY 14 DAT,[5]; [12],20%
same,% INJURY 21 DAT,[5]; [12],15%
same,% INJURY 28 DAT,[5]; [12],18%
same,% INJURY 7 DAT,[5]; [13],20%
same,% INJURY 10 DAT,[5]; [13],22%
same,% INJURY 14 DAT,[5]; [13],2%
same,% INJURY 21 DAT,[5]; [13],8%
same,% INJURY 28 DAT,[5]; [13],7%
same,% INJURY 7 DAT,[5]; [14],25%
same,% INJURY 10 DAT,[5]; [14],27%
same,% INJURY 14 DAT,[5]; [14],15%
same,% INJURY 21 DAT,[5]; [14],25%
same,% INJURY 28 DAT,[5]; [14],22%
same,% INJURY 7 DAT,[5]; [15],17%
same,% INJURY 10 DAT,[5]; [15],18%
same,% INJURY 14 DAT,[5]; [15],20%
same,% INJURY 21 DAT,[5]; [15],17%
same,% INJURY 28 DAT,[5]; [15],7%
"O=C(O)CN(CCN(CC(=O)O)CC(=O)O)CCN(CC(=O)O)CC(=O)O [2.0% w/v DTPA, Diethylenetriaminepentaacetic acid]",% CONTROL 7 DAT,[3]; [8],0%
same,% CONTROL 10 DAT,[3]; [9],3%
same,% CONTROL 14 DAT,[3]; [9],0%
same,% CONTROL 21 DAT,[3]; [9],3%
